According to PMC8159385, “Chemical synthesis of human syndecan-4 glycopeptide bearing O-, N-sulfation and multiple aspartic acids for probing impacts of the glycan chain and the core peptide on biological functions” (Chemical Science, 2020):
Like-named read-outs stand apart in the source and are kept apart here. Residues, ends and D or L forms follow the SMILES beside them. *: point of attachment. X1 = O=C(O)[C@H]1O[C@@H](O[C@H]2[C@@H](O)[C@@H](CO)O[C@@H](O[C@H]3[C@@H](O)[C@@H](CO)O[C@@H](O[C@@H]4CO[C@@H](*)[C@H](O)[C@H]4O)[C@@H]3O)[C@@H]2O)[C@H](O)[C@@H](O)[C@@H]1O[C@H]1O[C@H](COS(=O)(=O)O)[C@@H](O)[C@H](O)[C@H]1NS(=O)(=O)O; Biotin = O=C1N[C@H]2[C@H](CS[C@H]2CCCCC(=O)*)N1; Ahx = NCCCCCC(=O)O

Experiments:
heparanase = biological target: T1, heparanase (Homo sapiens, UniProt Q9Y251); assay: Fondaparinux colorimetric heparanase assay; format: biochemical; settings: for inhibition at 3.3 µM: 3.3 μM compound; for inhibition at 3.3 µM / inhibition at 10 µM / inhibition at 33 µM: heparanase 5 nM; for inhibition at 10 µM: 10 μM compound; for inhibition at 33 µM: 33 μM compound
T1 sequence (Q9Y251 158-543 limits assumed): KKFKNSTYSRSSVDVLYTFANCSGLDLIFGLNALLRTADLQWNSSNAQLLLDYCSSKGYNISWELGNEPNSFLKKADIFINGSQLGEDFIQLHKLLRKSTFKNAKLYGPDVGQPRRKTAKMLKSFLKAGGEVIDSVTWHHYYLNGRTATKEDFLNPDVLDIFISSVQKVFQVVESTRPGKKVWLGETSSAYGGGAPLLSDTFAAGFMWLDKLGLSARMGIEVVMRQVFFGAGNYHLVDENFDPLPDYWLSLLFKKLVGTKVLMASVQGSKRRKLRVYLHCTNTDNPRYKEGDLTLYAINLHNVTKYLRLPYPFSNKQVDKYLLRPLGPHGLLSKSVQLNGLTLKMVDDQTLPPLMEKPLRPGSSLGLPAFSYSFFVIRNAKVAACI
T1 sequence (Q9Y251 36-109 limits assumed): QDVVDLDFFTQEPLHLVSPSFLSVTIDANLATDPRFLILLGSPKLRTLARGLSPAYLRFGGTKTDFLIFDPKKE
Text: With the synthetic glycopeptide and the corresponding peptide and glycan in hand, we began to probe the impacts of glycan and peptide on biological functions of the glycopeptide. The endoglycosidase heparanase is an important enzyme for HS metabolism, which can cleave HS polysaccharide chains at the cell surface or in the extracellular matrix.[63] Heparanase activities are important for a variety of biological processes, including tumor metastasis and cell proliferation.[64] […]
General procedure for heparanase assays
Fondaparinux colorimetric heparanase assays were carried out in 96 well microplates (NEST Scientific 96 Well Cell Culture Plate, 701002) pre-treated with a solution of 4% BSA in phosphate-buffered saline containing 0.05% Tween 20 (PBST) for 2 h at 37 °C. A ssay solutions (100 ul) contained sodium acetate buffer (40 mM, pH 5.0) and fondaparinux ([…], MedChemExpress), heparanase (5 nM) and varying concentrations of compounds of interests or heparin. The mixture was kept at 37 °C for 20 h, which was followed by addition of a solution of WST-1 (100 μL of 1.69 mM WST-1 in 0.1 M NaOH) and incubation at 60 °C for 1 h after which the absorbance at 584 nm was measured (Fluostar Optima plate reader, BMG Labtech). […]

CCL-13 = CCL-13 (Homo sapiens, UniProt Q99616); assay: BLI binding assay, biotinylated compounds on streptavidin biosensors, CCL-13; set-up: key to K D CCL-13: Inactive denotes a KD value greater than 400 μM; settings: for Kd: Table 2, read-out: K D CCL-13
Procedure: (§1) Cytokines and growth factors are important proteins modulating cellular functions, many of which are known to interact with HS.[1,8,34,67] To probe the impacts of the glycan and the core peptide, the binding of glycopeptide 1, pentasaccharide 30, and peptide 31 to several representative growth factors and cytokines including fibroblast growth factor 2 (FGF-2), interleukin 8 (IL-8) and chemokine (C–C motif ligand 13 (CCL-13)) respectively was tested using the biolayer interferometry (BLI). The biotinylated glycopeptide 1, pentasaccharide 30, and peptide 31 were immobilized on streptavidin coated biosensors, and their dissociation constants (KD) with the proteins were measured (Table 2). […]
(§2) General procedure for biotinylation
(§3) To a solution of free amine compounds in DMSO/H 2O (1/1, 0.5 ml) was added […]
(§4) The reaction was stirred at room temperature for 5 hours. Then the mixture was loaded onto a G-15 Sephadex column for purification. […] General procedure for BLI binding assay
(§5) The binding assay was performed on the Octet K2 System (Pall ForteBio). The biotinylated […]
(§6) compounds were absorbed to streptavidin (SA) sensor for 2 min. The sensor was then balanced in the assay buffer (PBS containing 0.005% P20) and dipped into protein solution in assay buffer at different concentration. After 5 min of association, the sensor was brought back to the previous assay

IL-8 = biological target: T2, IL-8 (Homo sapiens, UniProt P10145); assay: BLI binding assay, biotinylated compounds on streptavidin biosensors, IL-8; settings: Table 2, read-out: K D IL-8
T2 sequence (P10145 21-99): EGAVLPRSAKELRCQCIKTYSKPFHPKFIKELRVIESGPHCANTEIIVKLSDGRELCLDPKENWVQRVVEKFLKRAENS
Procedure: as §1, §2, §3, §4, §5, §6

FGF-2 = FGF-2 (Homo sapiens, UniProt P09038); assay: BLI binding assay, biotinylated compounds on streptavidin biosensors, FGF-2
Procedure: as §1, §2
To a solution of free amine compounds in DMSO/H 2O (1/1, 0.5 ml) was added sulfo-NHS-LC-Biotin (5 equiv) and DIPEA (pH ~ 8.5). The reaction was stirred at room temperature for 5 hours. Then the mixture was loaded onto a G-15 Sephadex column for purification. […] General procedure for BLI binding assay
as §5
compounds were absorbed to streptavidin (SA) sensor for 2 min. The sensor was then balanced in the assay buffer (PBS containing 0.005% P20) and dipped into protein solution in assay buffer at different concentration. After 5 min of association, the sensor was brought back to the previous assay buffer for a 5 min dissociation step. At the end of the assay, the sensor was regenerated in 2 M NaCl to remove the bound protein. Each measurement was repeated 3 times on the same sensor. The control assay was done with another sensor loaded with saturated biotin solution. […]
MD trajectories were generated from the protein system without any ligand to relax the structure and minimize the pocket restrictions caused by the present ligand in the structure.
The geometries of compounds 2, 28 and 29 were optimized using the Gaussian 16 program package. The optimizations were performed using the AM1 method.1 The obtained Mulliken charges were used with the antechamber module of Amber 16 in the generation of parameters. The systems were prepared using the Leap module of AmberTools162 under the AMBER ff14SB and GAFF force fields. Each enzyme complex was solvated in a 14 Å cube of TIP4P-Ew water beyond the solute and 100 mM sodium chloride. The systems were relaxed under NVT conditions over six minimization procedures with decreasing restraints on the protein of 500.0, 200.0, 20.0, 10.0, 5.0 kcal/(mol Å2) to no restraints. The systems were then heated to 300 K over 30 ps. Atomistic molecular dynamics simulations were performed for 30 ns at 300 K and 1 atm using AMBER 16. The SHAKE algorithm constrained bonds involving hydrogen. 3 The trajectories were produced using Langevin dynamics and the pressure of the system was regulated with isotropic position scaling. Long -range electrostatic effects were modeled using the particle-mesh Ewald method with a 10 Å cutoff.
The produced trajectories were analyzed using AMBER 16 and visualized with MOE and the UCSF Chimera package. Free energy of binding was calculated for every picosecond using the Poisson Boltzmann model form the MMPBSA.py module of AmberTools and AMBER 16. The relative free energy trends between models were compared so solute entropy was neglected.
Following the general procedure for solid-phase peptide synthesis, peptide 29 was obtained in 52% […]
RP-HPLC retention time, tR = 24.4 min.
Following the general procedure for biotinylation, peptide 31 was obtained from 12-mer peptide 29 in 56% yield. The overall yield based on resin loading is 29%. HRMS: C65H103N15O28S [M - 2H]2- […]
Figure S1: Binding of synthetic compounds 1, 31 and 30 to protein FGF2 as measured by BLI (a-c respectively). The biotinylated compounds (2 μM ) were immobilized on streptavidin coated biosensors, and FGF2 was captured on biosensors with six concentrations at 291 nM, 145 nM, […], 39 nM, 20 nM, 10 nM. Fitting curves were shown in red lines. […]

[1] = BLI, Table 2, read-out: K D FGF2
[2] = Table S2, KD values from BLI measurements, read-out: Experimental KD

CCL-13, sequence (Q99616 17-98, species assumed): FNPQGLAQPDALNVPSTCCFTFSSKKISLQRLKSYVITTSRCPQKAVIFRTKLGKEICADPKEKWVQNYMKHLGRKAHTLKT
FGF-2, sequence (P09038 143-288, species assumed): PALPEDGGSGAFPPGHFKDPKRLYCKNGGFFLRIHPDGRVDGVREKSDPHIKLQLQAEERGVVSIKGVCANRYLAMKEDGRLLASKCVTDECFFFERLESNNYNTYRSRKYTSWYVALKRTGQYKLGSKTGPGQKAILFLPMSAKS

Structure (SMILES)	inhibition at 3.3 µM (heparanase)	inhibition at 10 µM (heparanase)	inhibition at 33 µM (heparanase)	KD with CCL-13 (CCL-13)	K D CCL-13 (CCL-13; Table 2)	Kd (IL-8)	Kd (FGF-2; [1])	Kd (FGF-2; [2])	inhibition of heparanase at concentrations up to 100 μM (heparanase)	Kd (CCL-13)	FGF-2 binding, fold higher than pentasaccharide 30 and peptide 31 (FGF-2; ratio of KD values)
O=C(CCCCC1SCC2NC(=O)NC21)NCCCCCC(=O)NCCCOC1OCC(OC2OC(CO)C(O)C(OC3OC(CO)C(O)C(OC4OC(C(=O)O)C(OC5OC(COS(=O)(=O)O)C(O)C(O)C5NS(=O)(=O)O)C(O)C4O)C3O)C2O)C(O)C1O (stereo not drawn) [Compound 30]	< 0%	32%	61%	did not exhibit much binding	Inactive	0.039 µM	0.0145 µM				
CC(C)C[C@H](NC(=O)[C@H](CC(=O)O)NC(=O)CNC(=O)[C@H](CO)NC(=O)CNC(=O)[C@H](CO)NC(=O)[C@@H](N)CC(C)C)C(=O)N[C@@H](CC(=O)O)C(=O)N[C@@H](CC(=O)O)C(=O)N[C@@H](CC(C)C)C(=O)N[C@@H](CCC(=O)O)C(=O)N[C@@H](CC(=O)O)C(=O)O [Compound 29] (H-LSGSGDLDDLED-OH)								0.017 µM			
CC(C)C[C@H](NC(=O)CCCCCNC(=O)CCCC[C@@H]1SC[C@@H]2NC(=O)N[C@@H]21)C(=O)N[C@@H](CO)C(=O)NCC(=O)N[C@@H](CO[C@@H]1OC[C@@H](O[C@@H]2O[C@H](CO)[C@H](O)[C@H](O[C@@H]3O[C@H](CO)[C@H](O)[C@H](O[C@@H]4O[C@H](C(=O)O)[C@@H](O[C@H]5O[C@H](COS(=O)(=O)O)[C@@H](O)[C@H](O)[C@H]5NS(=O)(=O)O)[C@H](O)[C@H]4O)[C@H]3O)[C@H]2O)[C@H](O)[C@H]1O)C(=O)NCC(=O)N[C@@H](CC(=O)O)C(=O)N[C@@H](CC(C)C)C(=O)N[C@@H](CC(=O)O)C(=O)N[C@@H](CC(=O)O)C(=O)N[C@@H](CC(C)C)C(=O)N[C@@H](CCC(=O)O)C(=O)N[C@@H](CC(=O)O)C(=O)O [Compound 1] ({Biotin-Ahx}-LSGS(X1)GDLDDLED-OH)	< 0%	< 0%	< 0%			0.028 µM	0.005 µM		neither peptide 31 nor glycopeptide 1 were able to inhibit heparanase	0.498 µM	about 3 fold
NCCCO[C@@H]1OC[C@@H](O[C@@H]2O[C@H](CO)[C@H](O)[C@H](O[C@@H]3O[C@H](CO)[C@H](O)[C@H](O[C@@H]4O[C@H](C(=O)O)[C@@H](O[C@H]5O[C@H](COS(=O)(=O)O)[C@@H](O)[C@H](O)[C@H]5NS(=O)(=O)O)[C@H](O)[C@H]4O)[C@H]3O)[C@H]2O)[C@H](O)[C@H]1O [Compound 28]								0.0145 µM			
CC(C)C[C@H](NC(=O)CCCCCNC(=O)CCCC[C@@H]1SC[C@@H]2NC(=O)N[C@@H]21)C(=O)N[C@@H](CO)C(=O)NCC(=O)N[C@@H](CO)C(=O)NCC(=O)N[C@@H](CC(=O)O)C(=O)N[C@@H](CC(C)C)C(=O)N[C@@H](CC(=O)O)C(=O)N[C@@H](CC(=O)O)C(=O)N[C@@H](CC(C)C)C(=O)N[C@@H](CCC(=O)O)C(=O)N[C@@H](CC(=O)O)C(=O)O [Compound 31] ({Biotin-Ahx}-LSGSGDLDDLED-OH; N-terminus and C-terminus assumed)	< 0%	< 0%	< 0%			0.075 µM	0.017 µM		neither peptide 31 nor glycopeptide 1 were able to inhibit heparanase	0.092 µM	
